Like-named read-outs stand apart in the source and are kept apart here. Values belong to the compound of their own block, whether it stands above or below them.
Tests used:
MM317 = assay: Cytotoxicity assay, primary mesothelioma MM317; assay type: cell-based, Human; settings: epithelioid, 72 h, SBR assay, read-out: IC50 ± SD MM317
MM487 = assay: Cytotoxicity assay, primary mesothelioma MM487; assay type: cell-based, Human; settings: for IC50: biphasic, 72 h, SBR assay, read-out: IC50 ± SD MM487
MM481 = assay: Cytotoxicity assay, primary mesothelioma MM481; assay type: cell-based, Human; settings: epithelioid, 72 h, SBR assay; read-out: IC50 ± SD MM481
MM404 = assay: Cytotoxicity assay, primary mesothelioma MM404; assay type: cell-based, Human; settings: epithelioid, 72 h, SBR assay; read-out: IC50 ± SD MM404
MM473 = assay: Cytotoxicity assay, primary mesothelioma MM473; assay type: cell-based, Human; settings: epithelioid, 72 h, SBR assay; read-out: IC50 ± SD MM473
MM491 = assay: Cytotoxicity assay, primary mesothelioma MM491; assay type: cell-based, Human; settings: biphasic, 72 h, SBR assay; read-out: IC50 ± SD MM491
MM432 = assay: Cytotoxicity assay, primary mesothelioma MM432; assay type: cell-based, Human; settings: for IC50: sarcomatoid, 72 h, SBR assay, read-out: IC50 ± SD MM432
MM288 = assay: Cytotoxicity assay, primary mesothelioma MM288; assay type: cell-based, Human; settings: for IC50: epithelioid, 72 h, SBR assay, read-out: IC50 ± SD MM288
KM-H2 = assay: Cytotoxicity assay (MTT, 72 h) KM-H2; assay type: cell-based, Human
NCI-H460 = assay: Cytotoxicity assay (SRB, 72 h) NCI-H460; assay type: cell-based, Human
Capan 1 = assay: Cytotoxicity assay (SRB, 72 h) Capan 1; assay type: cell-based, Human; settings: Homo sapiens, CAPAN-1, read-out: IC50 ± SD Capan 1
A2780-Dx = assay: Cytotoxicity assay (SRB, 72 h) A2780-Dx; assay type: cell-based, Human; settings: Homo sapiens, A2780/DX; 72 h, SRB assay; multidrug-resistant ovarian carcinoma; read-out: IC50 ± SD A2780-Dx
[1] = test system: hematologic cancer cell lines; assay: Screening on hematologic cancer cell lines (summary); assay type: cell-based; settings: Homo sapiens, read-out: IC50 across hematologic cancer cell lines (Tables 5 and 6); span over the cell line panel, 72 h, MTT assay
U-2932 = assay: Cytotoxicity assay (MTT, 72 h) U-2932; assay type: cell-based, Human; settings: Homo sapiens, U2932, read-out: IC50 ± SD U-2932
HepG2 = assay: Cytotoxicity assay (SRB, 72 h) HepG2; assay type: cell-based, Human; settings: Homo sapiens, HepG2, read-out: IC50 ± SD HepG2
OCI-LY3 = assay: Cytotoxicity assay (MTT, 72 h) OCI-LY3; assay type: cell-based, Human; settings: for IC50: Homo sapiens, OCI-Ly3, 72 h, MTT assay, read-out: IC50 ± SD OCI-LY3
Description: (§1) Human tumor cells were seeded in 96-well cell culture plastic plates, allowed to attach, and exposed to scalar concentrations of the test compounds.

HT29 = assay: Cytotoxicity assay (SRB, 72 h) HT29; assay type: cell-based, Human; settings: Homo sapiens, HT-29, read-out: IC50 ± SD HT29
[2] = test system: primary malignant pleural mesothelioma (MPM) cell lines; assay: Primary malignant pleural mesothelioma (MPM) cell lines (summary); assay type: cell-based; settings: Homo sapiens, span over the cell line panel, 72 h, read-out: IC50 across primary mesothelioma cell lines (Table 7)
HeLa = assay: Cytotoxicity assay (SRB, 72 h) HeLa; assay type: cell-based, Human; settings: Homo sapiens, HeLa, read-out: IC50 ± SD HeLa
MINO = assay: Cytotoxicity assay (MTT, 72 h) MINO; assay type: cell-based, Human
DU145 = assay: Cytotoxicity assay (SRB, 72 h) DU145; assay type: cell-based, Human; settings: Homo sapiens, DU-145, read-out: IC50 ± SD DU145
[3] = test system: series of human tumor cell lines; assay: Antiproliferative activity, series of human tumor cell lines (summary); assay type: cell-based; settings: span over the cell line panel, 72 h, SRB assay, read-out: IC50 across the human tumor cell lines of Table 3
JECO-1 = assay: Cytotoxicity assay (MTT, 72 h) JECO-1; assay type: cell-based, Human
L-428 = assay: Cytotoxicity assay (MTT, 72 h) L-428; assay type: cell-based, Human; settings: for IC50: Homo sapiens, L-428, 72 h, MTT assay, read-out: IC50 ± SD L-428
Description: as §1

NCI-H460 NSCLC cells = assay: FACS analysis of cell cycle and apoptosis; assay type: cell-based, Human; settings: 72 h at own IC80 dose, PI staining; for Sub-G0/1 (%): apoptosis
A431 = assay: Cytotoxicity assay (SRB, 72 h) A431; assay type: cell-based, Human; settings: Homo sapiens, A-431, read-out: IC50 ± SD A431
DG-75 = assay: Cytotoxicity assay (MTT, 72 h) DG-75; assay type: cell-based, Human
MAVER-2 = assay: Cytotoxicity assay (MTT, 72 h) MAVER-2; assay type: cell-based, Human; settings: Homo sapiens, read-out: IC50 ± SD MAVER-2
A2780 = assay: Cytotoxicity assay (SRB, 72 h) A2780; assay type: cell-based, Human; settings: Homo sapiens, A2780, read-out: IC50 ± SD A2780
NB4 = assay: Cytotoxicity assay (MTT, 72 h) NB4; assay type: cell-based, Human; settings: Homo sapiens, NB-4, read-out: IC50 ± SD NB4
[4] = test system: human epithelioid mesothelioma MM473-Luc; assay: In vivo antitumor activity, orthotopic MM473-Luc xenograft; settings: i.v. 35 mg/kg, q4dx3, treatment from day 15
RPMI-8226 = assay: Cytotoxicity assay (MTT, 72 h) RPMI-8226; assay type: cell-based; settings: Homo sapiens, read-out: IC50 ± SD RPMI-8226
Description: as §1

p16 = assay: Western blot, p16 in NCI-H460 cells; assay type: cell-based, Human; settings: 24 h; SAHA 5 μM, SN38 0.05 μM, 3d 0.125–0.2–0.5 μM
Description: (§2) The supernatant, containing the total proteins extracts, were transferred in new vials. The protein concentration was measured by Bradford Protein Assay. Equal amounts of proteins for each sample were then resolved by SDS-PAGE and loaded on 10–12% polyacrilamide gels. The proteins were then transferred on nitrocellulose membranes. Molecular weights were estimated based upon the relative migration with molecular weight protein markers.
(§3) The non-specific binding was blocked by incubation of membranes in TBS-tween (25 mM Tris, 150 mM NaCl, 0.1% Tween 20) with 5% nonfat dry milk (BIORAD, Milan) for 60 minutes. Subsequently, the membrane was incubated overnight with primary antibodies: anti-Histone H4 (Millipore, 1:500), anti-acetyl-H4 (Santa Cruz, 1:1000) anti-p21 (Santa Cruz, 1:1000), anti-acetyl-tubulin (abcam, 1:1000), anti-α-tubulin (Sigma, 1:5000), anti β-actin (Sigma, 1:5000) and anti-Topoisomerase 1 (Santa Cruz, 1:500). After three washes with TBST blots were incubated with HRP-coniugated secondary anti-mouse and anti-rabbit (Santa Cruz, 1:5000) 1 hour at room temperature. After three washes with TBST the blots were developed with ECL substrate (GE Healthcare) and chemiluminescence detected by ChemiDoc Imaging System (Biorad). The optical density of the protein bands detected by western blotting was normalized on α -tubulin levels and analyzed by ChemiDoc software (Biorad).
(§4) Cells were lysed in 0.5% NP-40 and 40 μg of total proteins were loaded on NuPAGE 4–12% (Invitrogen), transferred to a nitrocellulose paper and probed with specific antibodies.

p53 = assay: Western blot, p53 in NCI-H460 cells; assay type: cell-based, Human; settings: 24 h; SAHA 5 μM, SN38 0.05 μM, 3d 0.125–0.2–0.5 μM
Description: as §2, §3, §4

CycD1 = assay: Western blot, CycD1 in NCI-H460 cells; assay type: cell-based, Human; settings: 24 h; SAHA 5 μM, SN38 0.05 μM, 3d 0.125–0.2–0.5 μM
Description: as §2, §3, §4

p21 = assay: Western blot, p21 in NCI-H460 cells; assay type: cell-based, Human; settings: 24 h; SAHA 5 μM, SN38 0.05 μM, 3d 0.125–0.2–0.5 μM
Description: as §2
as §3, with “software (Biorad). […]” for “software (Biorad).”

H2A.X = assay: Western blot, H2A.X induction in NCI-H460 cells; assay type: cell-based, Human; settings: 24 h; SAHA 5 μM, SN38 0.05 μM, 3d 0.125–0.2–0.5 μM
Description: as §2, §3, §4

[5] = meaning not defined in the paper
[6] = meaning not defined in the paper, given beside >10 μM

Structure (SMILES): O=c1[nH]cc(F)c(=O)[nH]1 [Compound 5-FU]
- IC50 (MM317): 17.9 ± 3.1 µM
- IC50 (MM487): > 200 µM
- percentage in parentheses after IC50 >200, MM487 (MM487; [5]): 48%
- IC50 (MM481): 27.4 ± 2.2 µM
- IC50 (MM404): 52.2 ± 8.7 µM
- IC50 (MM473): 35.2 ± 8.4 µM
- IC50 (MM491): 44 ± 10.3 µM
- percentage in parentheses after IC50 >200, MM432 (MM432; [5]): 34%
- IC50 (MM432): > 200 µM
- IC50 (MM288): > 200 µM
- percentage in parentheses after IC50 >200, MM288 (MM288; [5]): 35%

- IC50 [1]: > 10 µM
- IC50 [2]: > 7 µM
- IC50 [3]: > 1.5 µM
Structure (SMILES): CCc1c2c(nc3ccc(OC(=O)N4CCC(N5CCCCC5)CC4)cc13)-c1cc3c(c(=O)n1C2)COC(=O)[C@]3(O)CC [Irinotecan]
- IC50 (MM317; Homo sapiens): 7 ± 1 µM
- IC50 (KM-H2; Homo sapiens, KM-H2, 72 h, MTT assay, read-out: IC50 ± SD KM-H2): > 10 µM
- percentage in parentheses after IC50 >10, KM-H2 (KM-H2; [6]): 12%
- IC50 (NCI-H460; Homo sapiens, NCI-H460, 72 h, SRB assay, read-out: IC50 ± SD NCI-H460): 2.4 ± 0.1 µM
- IC50 (Capan 1): 1.5 ± 0.1 µM
- IC50 (A2780-Dx): 20.1 ± 2.9 µM
- IC50 (MM487; Homo sapiens, MM487): 9.4 ± 0.7 µM
- IC50 (U-2932): 4.4 ± 0.8 µM
- IC50 (HepG2): 4 ± 0.8 µM
- IC50 (OCI-LY3): > 10 µM
- percentage in parentheses after IC50 >10, OCI-LY3 (OCI-LY3; [6]): 0%
- IC50 (HT29): 4.8 ± 0.4 µM
- IC50 (HeLa): 5.8 ± 0.6 µM
- IC50 (MINO; Homo sapiens, MINO, 72 h, MTT assay, read-out: IC50 ± SD MINO): > 10 µM
- percentage in parentheses after IC50 >10, MINO (MINO; [6]): 36%
- IC50 (DU145): 2.8 ± 0.07 µM
- IC50 (JECO-1; Homo sapiens, 72 h, MTT assay, read-out: IC50 ± SD JECO-1): > 10 µM
- percentage in parentheses after IC50 >10, JECO-1 (JECO-1; [6]): 48%
- IC50 (L-428): > 10 µM
- percentage in parentheses after IC50 >10, L-428 (L-428; [6]): 0%
- G0/1 (%) (NCI-H460 NSCLC cells): 7.9%
- G2/M (%) (NCI-H460 NSCLC cells): 3.2%
- S (%) (NCI-H460 NSCLC cells): 89.0%
- Sub-G0/1 (%) (NCI-H460 NSCLC cells): 2.7%
- IC50 (MM432; Homo sapiens): 10 ± 2 µM
- IC50 (A431): 4.1 ± 0.1 µM
- IC50 (DG-75; Homo sapiens, DG-75, 72 h, MTT assay, read-out: IC50 ± SD DG-75): > 10 µM
- percentage in parentheses after IC50 >10, DG-75 (DG-75; [6]): 0%
- IC50 (MAVER-2): 0.74 ± 0.1 µM
- IC50 (A2780): 3.8 ± 0.5 µM
- IC50 (NB4): 1 ± 0.3 µM
- antitumor activity (BLI signal, average radiance) [4]: only a marginal antitumor effect
- IC50 (MM288; Homo sapiens): 14.9 ± 2 µM

- IC50 [2]: 4 to 12 µM
Structure (SMILES): O=C(CCCCCCC(=O)Nc1ccccc1)NO [SAHA, suberoylanilide hydroxamic acid]
- IC50 (RPMI-8226): 1.98 ± 0.5 µM
- P16 regulation (p16): down
- p53 activation (p53): less effective in p53 up-regulation
- CycD1 regulation (CycD1): up-regulated
- IC50 (OCI-LY3): 0.99 ± 0.3 µM
- IC50 (L-428): 2.3 ± 0.5 µM
- expression of p21 (p21): induction of p21
- G0/1 (%) (NCI-H460 NSCLC cells): 65.2%
- G2/M (%) (NCI-H460 NSCLC cells): 23.1%
- S (%) (NCI-H460 NSCLC cells): 11.7%
- Sub-G0/1 (%) (NCI-H460 NSCLC cells): 1.8%
- H2A.X induction (DNA damage) (H2A.X): completely ineffective in H2A.X induction

Structure (SMILES): CCc1c2c(nc3ccc(O)cc13)-c1cc3c(c(=O)n1C2)COC(=O)[C@]3(O)CC [SN38]
- IC80 (NCI-H460; NCI-H460 cells): ~0.05 µM
- P16 regulation (p16): didn’t show any effect
- p53 activation (p53): less effective in p53 up-regulation
- CycD1 regulation (CycD1): didn’t show any effect
- H2A.X induction (DNA damage) (H2A.X): completely ineffective in H2A.X induction
